Data on two substances can be found in patent US7067619B2, “Integrin-binding peptides” (La Jolla Cancer Research Foundation, priority 1993, dated 2006).

For data set [1], the system named is αvβ1 integrin. Briefly: Inhibition of αvβ1-mediated cell attachment to fibronectin. Format: cell-based. The note with it: less active, FIG. 6. The source says: Cell lines expressing different integrins were used to examine peptide inhibition of integrin function. A human melanoma cell line, C8161, a fibroblast cell line, WI-38, and an osteosarcoma cell line, MG-63 (described by Seftor et al., Canc. Res., 53:3411–3415 (1993); Vogel et al., J. Biol. Chem., 265:5934–5937 (1990); and Pytela et al. (1985), supra, respectively, each of which is incorporated herein by reference) attach to fibronectin through α5β1 integrin, as does B2/α27, a CHO cell line transfected with human α5. B2/C1, the control parental CHO line (Bauer et al., J. Cell. Biol. 116:477–487 (1992), which is incorporated herein by reference), attaches via […]. CHO cells C11 and NIH 3T3 cells express the endogenous Chinese hamster and mouse α5β1 integrins, respectively. The human melanoma cells, A375-M, attach to fibronectin through both α5β1 and α4β1 integrins (Mould et al., J. Biol. Chem. 265:4020–4024 (1990), which is incorporated herein by reference). CHO cell line B2/v7 express the αvβ1 integrin (Zhang et al., J. Cell. Biol. 122:235–242 (1993), which is incorporated herein by reference). […]
Cell lines expressing fibronectin-binding integrins were used to determine peptide activities against these integrins in the cell attachment assay described by Ruoslahti et al., Meth. […] Bound cells were quantitated by staining with 0.1% amido black. […]

Data set [2] has as its system αvβ1 integrin. The data set can be described thus: Attachment of αvβ1-expressing B2/v7 cells to immobilized […] peptide. Format: cell-based. From the text: Cell lines expressing fibronectin-binding integrins were used to determine peptide activities against these integrins in the cell attachment assay described by Ruoslahti et al., Meth. Enzymol., 144:803–831 (1982), which is incorporated herein by reference. Human plasma fibronectin was iodinated as described by Morla and Ruoslahti, J. Cell Biol., 118:421–429 (1992), which is incorporated herein by reference. Vitronectin was obtained from Telios Pharmaceuticals (San Diego, Calif.). […] Peptide was coated on plastic by incubating at 37° C. for 2 hours in phosphate buffered saline containing 0.25% glutaraldehyde to crosslink the peptide. Free binding sites on the plastic were blocked using BSA. Approximately 1×10^5 cells per well were allowed to attach for 1 hour in the presence or absence of competing peptides. Bound cells were quantitated by staining with 0.1% amido black.
In addition to the inhibition of cell attachment to natural ligands, attachment and inhibition assays were performed using the […] [SEQ ID NO:6] peptide as substrate. The microliter well were coated with […] [SEQ ID NO:6] using glutaraldehyde as described above. […] Bound cells were quantitated by staining with 0.1% amido black.

The nature of data set [3]: Precipitation behaviour of the peptide in solution. Type of data set: physicochemical. As to conditions: neutral pH.

Bridge positions count the residues as written; N and C are the ends. Ends that are not written are not given here.

For GACRRETAWACGA, in the data set on αvβ1 integrin [1], the “activity against αvβ1 relative to CELRGDGWC” value is reported as “about 40 ×” and the “activity against αvβ1 relative to the cyclic RGD peptide” value was “greater than 100 ×”. In addition, the “peptide coating concentration required to produce significant attachment” value in the data set on αvβ1 integrin [2] came out at 1 mg/mL.
Turning to “A*CPSRLDSPC*G (ACPSRLDSPCG; disulfide 2-10 (inferred))”, the “precipitation of the peptide” value in data set [3] is reported as “tendency of the peptide precipitate at neutral pH”.
